By EC50 is commonly meant the midpoint of the concentration-response curve.

The values below come from patent US9784740B2 (priority 2013, dated 2017).

The target of assay [1] is T1, mu-opioid receptor (OPRM1) (Homo sapiens, UniProt P35372). Put plainly: β-arrestin recruitment assay (PathHunter) in U2OS-OPRM1 cells. The conditions noted are these: for Description (PAM efficacy class / SAM): U2OS-OPRM1, β-arrestin PAM and SAM detection modes; for β-arrestin recruitment, agonist detection mode (compound alone): U2OS-OPRM1 cells, no orthosteric agonist.

Assay [2] concerns the target T1, mu-opioid receptor (OPRM1).
The target in assay [3] is T2, mu-opioid receptor (C6mu membranes) (Rattus norvegicus, UniProt P33535).
T2 construct: expressed in transfected cells; host or cells: C6 glioma cells (membranes)
Nature of the assay: [35S]GTPγS binding in C6mu cell membranes. The format is biochemical. The conditions noted are these: for agonist activity of modulator in [35S]GTPγS binding: modulator alone. Background: Binding of GTPγS marks nucleotide exchange on a G protein.

The target in assay [4] is T3, delta opioid receptor (OPRD1) (Homo sapiens, UniProt P41143).
T3 construct: host or cells: U2OS (PathHunter U2OS-OPRD1)
Nature of the assay: β-arrestin recruitment assay (PathHunter) in U2OS-OPRD1 cells. The format is cell-based. The conditions noted are these: for β-arrestin recruitment, agonist detection mode: U2OS-OPRD1, no leu-enkephalin; for β-arrestin recruitment, PAM detection mode: U2OS-OPRD1, ~EC10 (0.4 nM) leu-enkephalin. For orientation: Activated receptors often draw arrestin, which recruitment assays turn into a signal.

Assay [5] concerns the target T1, mu-opioid receptor (OPRM1). Nature of the assay: cell-based.
Assay [6] addresses T4, human mu opioid receptors (Homo sapiens, UniProt P35372). Put plainly: Inhibition of forskolin-stimulated cAMP accumulation in CHO-mu cells. The conditions noted are these: for EC50: mean (95% CI). On the technique in general: Changes in cAMP serve as a functional read-out for many G protein-coupled receptors.
For assay [7], the target named is T4, human mu opioid receptors.
In assay [8] the target is T2, mu-opioid receptor (C6mu membranes). Nature of the assay: DAMGO competition binding with [3H]diprenorphine in C6mu membranes. To be noted: 10 uM modulator.
Assay [9] has as its target T4, human mu opioid receptors. Nature of the assay: cell-based.
In assay [10] the target is T5, mu-opioid receptor (mouse brain membranes) (Mus musculus, UniProt P42866).
T5 construct: membranes from a physiologically relevant tissue with endogenous levels of receptor and G-protein; from tissue; host or cells: mouse whole brain minus cerebellum, membrane homogenate
Nature of the assay: [35S]GTPγS binding in mouse brain membranes. Format: biochemical.

Assay [11] addresses T2, mu-opioid receptor (C6mu membranes). Format: binding.
Where [12] appears, read: C6mu membranes, 10 uM modulator.

Where “and” joins values, the source holds several entries; their conditions need not be identical. Identical values can stand only once. Entries after “also recorded” stand apart in the source; their conditions may differ. Like-named read-outs stand apart in the source and are kept apart here.

T5 sequence (P42866 whole entry): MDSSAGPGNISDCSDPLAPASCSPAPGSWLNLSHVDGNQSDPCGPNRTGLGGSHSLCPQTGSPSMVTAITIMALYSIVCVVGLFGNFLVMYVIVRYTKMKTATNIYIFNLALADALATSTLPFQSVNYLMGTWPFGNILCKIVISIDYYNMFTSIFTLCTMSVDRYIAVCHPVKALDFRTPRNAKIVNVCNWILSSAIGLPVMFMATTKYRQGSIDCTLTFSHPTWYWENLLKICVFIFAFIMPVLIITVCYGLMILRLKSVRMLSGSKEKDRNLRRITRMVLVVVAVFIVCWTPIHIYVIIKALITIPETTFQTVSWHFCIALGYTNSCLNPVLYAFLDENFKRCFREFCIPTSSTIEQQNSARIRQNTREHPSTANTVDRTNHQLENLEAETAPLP
T4 sequence (P35372 whole entry): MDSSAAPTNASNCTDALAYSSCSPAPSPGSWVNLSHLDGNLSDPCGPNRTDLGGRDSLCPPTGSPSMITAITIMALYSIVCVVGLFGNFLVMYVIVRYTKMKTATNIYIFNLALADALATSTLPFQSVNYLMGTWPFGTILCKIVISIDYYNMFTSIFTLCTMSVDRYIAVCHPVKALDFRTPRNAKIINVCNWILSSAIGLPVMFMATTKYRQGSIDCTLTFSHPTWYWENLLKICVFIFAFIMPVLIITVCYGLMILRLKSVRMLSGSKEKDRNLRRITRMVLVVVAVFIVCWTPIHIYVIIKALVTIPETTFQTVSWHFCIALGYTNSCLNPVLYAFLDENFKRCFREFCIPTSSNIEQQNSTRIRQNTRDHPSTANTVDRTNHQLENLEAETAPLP
T1 sequence (P35372 whole entry): as above
T2 sequence (P33535 whole entry): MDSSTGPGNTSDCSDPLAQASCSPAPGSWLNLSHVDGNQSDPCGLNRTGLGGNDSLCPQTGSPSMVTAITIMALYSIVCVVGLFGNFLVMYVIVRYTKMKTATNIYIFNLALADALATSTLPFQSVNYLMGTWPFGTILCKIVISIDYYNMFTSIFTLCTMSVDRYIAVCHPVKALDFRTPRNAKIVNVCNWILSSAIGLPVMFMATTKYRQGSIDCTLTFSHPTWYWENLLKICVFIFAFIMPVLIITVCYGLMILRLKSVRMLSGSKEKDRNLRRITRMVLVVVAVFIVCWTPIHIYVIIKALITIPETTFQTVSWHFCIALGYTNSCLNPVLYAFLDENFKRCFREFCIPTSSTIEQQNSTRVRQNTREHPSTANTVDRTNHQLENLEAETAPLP
T3 sequence (P41143 whole entry): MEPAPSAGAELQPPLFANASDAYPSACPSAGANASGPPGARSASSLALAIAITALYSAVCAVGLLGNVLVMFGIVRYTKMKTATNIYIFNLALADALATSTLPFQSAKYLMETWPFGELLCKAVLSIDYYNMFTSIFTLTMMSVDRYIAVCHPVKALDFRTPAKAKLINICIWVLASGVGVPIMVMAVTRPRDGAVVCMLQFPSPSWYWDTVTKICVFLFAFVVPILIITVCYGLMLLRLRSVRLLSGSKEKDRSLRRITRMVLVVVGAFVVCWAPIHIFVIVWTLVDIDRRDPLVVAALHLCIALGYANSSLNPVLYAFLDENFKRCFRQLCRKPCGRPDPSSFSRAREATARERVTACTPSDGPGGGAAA

For the molecule `COc1ccc(C2SCCN2S(=O)(=O)c2ccc(Br)cc2)cc1OC` (racemic) [Analog 8], the “Description (PAM efficacy class / SAM)” value in assay [1] is recorded as “Weak PAM”. This molecule also had an EC50 in assay [2] of 14 µM.
For `COc1cc(Br)ccc1C1SCCN1S(=O)(=O)c1ccc(Cl)cc1` (racemic) [BMS-986124], in assay [3] (setting [12]), the “effect on DAMGO potency in [35S]GTPγS assay” value is on record as “not significantly increased”, the “effect on morphine Emax in [35S]GTPγS assay” value is given as “increased morphine Emax to a small degree” and the “effect on morphine potency in [35S]GTPγS assay” value is “not significantly increased”. For the same molecule, in assay [3] (C6mu membranes, 50 uM BMS-986124 alone), the “effect on DAMGO-stimulated [35S]GTPγS binding potency” value was “not affected”. The “agonist activity of modulator in [35S]GTPγS binding” value in assay [3] (C6mu membranes) was “No significant agonist activity was detected”. Moreover, the “antagonist/NAM detection mode: effect on EC80 endomorphin-I response” value in assay [1] (U2OS-OPRM1, 300 nM endomorphin-I) is listed as “no significant effect; also recorded: Neither compound significantly inhibited; also recorded: no NAM/antagonist activity”. Further, in assay [1] (U2OS-OPRM1, 12.5 uM (~EC80) BMS-986122 plus 30 nM (~EC20) endomorphin-I), the “SAM detection mode: inhibition of BMS-986122 PAM response” value is given as “able to inhibit the PAM response; also recorded: inhibited PAM responses”. Besides, in assay [1], the “Description (PAM efficacy class / SAM)” value is on record as “SAM” and the “β-arrestin recruitment, agonist detection mode (compound alone)” value (“β-arrestin recruitment … (compound alone)” for short) is recorded as “no activity”. The Kb in assay [1] (read-out: β-arrestin SAM Detection Mode (Kb), U2OS-OPRM1, inhibition of BMS-986122 (~EC80) response with ~EC20 endomorphin-I, Kb calculated from IC50) was 2 µM. In assay [4], the “β-arrestin recruitment, agonist detection mode” value is “no activity” and the “β-arrestin recruitment, PAM detection mode” value is “no activity”.
In the case of `COc1ccc(C2SCCN2S(=O)(=O)c2ccc([N+](=O)[O-])cc2)cc1Br` (stereo not drawn) [Analog 1], the “Description (PAM efficacy class / SAM)” value in assay [1] is “Moderate PAM”. The same molecule returned an EC50 in assay [5] of 2 µM.
Regarding `COc1ccc(C2SCCN2S(=O)(=O)c2ccc(C)cc2)cc1Br` (stereo not drawn) [Analog 2], the “Description (PAM efficacy class / SAM)” value in assay [1] is “Weak PAM”. In [5], this molecule came in with an EC50 of 4 µM.
Take `COc1ccc(S(=O)(=O)N2CCSC2c2ccc(OC)c(Br)c2)cc1` (stereo not drawn) [Analog 3]: the “Description (PAM efficacy class / SAM)” value in [1] is “Weak PAM”. This molecule came in with an EC50 in assay [5] of 6 µM.
For the molecule `COc1ccc(C2SCCN2S(=O)(=O)c2cccc(C)c2)cc1Br` (stereo not drawn) [Analog 4], the “Description (PAM efficacy class / SAM)” value in assay [1] is “Weak PAM”. In assay [5], this molecule gave an EC50 of 9 µM.
Turning to `COc1ccc(C2SCCN2S(=O)(=O)c2ccc(Cl)cc2)cc1[N+](=O)[O-]` (stereo not drawn) [Analog 5], the “Description (PAM efficacy class / SAM)” value in assay [1] is on record as “Moderate PAM”. In [5], this molecule displayed an EC50 of 4 µM.
On to `COc1ccc(C2SCCN2S(=O)(=O)c2ccc(Br)cc2)cc1[N+](=O)[O-]` (stereo not drawn) [Analog 6], for which, in assay [1], the “Description (PAM efficacy class / SAM)” value was “Moderate PAM”. The molecule also gave an EC50 in assay [5] of 2 µM.
Turning to `COc1ccc(C2SCCN2S(=O)(=O)c2ccc(Br)cc2)cc1` (stereo not drawn) [Analog 9], in assay [1], the “Description (PAM efficacy class / SAM)” value is recorded as “Moderate PAM”. Besides, in [5], the midpoint of the response, the EC50, lay at 7 µM.
The like results for `COc1ccc(C2SCCN2S(=O)(=O)c2ccccc2)cc1` (stereo not drawn) [Analog 10] were, in that order, “Weak PAM” and 23 µM.
For `O=S(=O)(c1ccc(Cl)cc1)N1CCSC1c1cccc(Cl)c1` (stereo not drawn) [Analog 11], the “Description (PAM efficacy class / SAM)” value in assay [1] is recorded as “Strong PAM”. The molecule further registered an EC50 in assay [5] of 5 µM.
Consider `O=S(=O)(c1ccc(Cl)cc1)N1CCSC1c1ccc(Br)cc1` (stereo not drawn) [Analog 12], for which, in [1], the “Description (PAM efficacy class / SAM)” value was “Weak PAM”. This molecule also returned an EC50 in assay [5] of 6 µM.
As to `COc1ccc(S(=O)(=O)N2CCSC2c2ccc(Br)cc2)cc1` (stereo not drawn) [Analog 14], in assay [1], the “Description (PAM efficacy class / SAM)” value is listed as “Weak PAM”. The molecule also registered an EC50 in assay [5] of 7 µM.
`COc1ccc(C2SCCN2S(=O)(=O)c2ccc(OC)cc2)cc1` (stereo not drawn) [Analog 15]: the “Description (PAM efficacy class / SAM)” value in assay [1] is “Weak PAM”. The molecule further came in with an EC50 in [5] of 37 µM.
As to `O=[N+]([O-])c1ccc(-c2csc(=Nc3c(Cl)cccc3Cl)[nH]2)cc1` [BMS-986121], in [6] (CHO-mu, 100 uM modulator), the “leftward shift in potency of endomorphin-I” value is 4 fold and 4.3 fold; the “leftward shift in potency of leu-enkephalin” value stood at 4.5 fold; the “leftward shift in potency of morphine” value was 6.5 fold. The “Emax of agonist activity (agonist detection mode)” value in assay [6] (CHO-mu, no orthosteric agonist, 100% = 10 nM endomorphin-I) is listed as 35 (6-63) %. For the same molecule, the EC50 in assay [6] (read-out: EC50 of agonist activity (agonist detection mode), CHO-mu, no orthosteric agonist) is 14 µM. Further, in assay [3] (setting [12]), the “effect of modulator on maximal stimulation by DAMGO” value was “not affected”, the “increase in morphine potency” value is 2.5 fold and the “leftward shift in DAMGO CRC (potency)” value is reported as 4 fold. For the same molecule, the “agonist activity of modulator in [35S]GTPγS binding” value in [3] (C6mu membranes) is “No significant agonist activity was detected”. Besides, the “β-arrestin recruitment … (compound alone)” value in assay [1] was “Neither BMS-986121 nor BMS-986122 produced significant β-arrestin recruitment on their own”. Further, in [4], the “β-arrestin recruitment, agonist detection mode” value is reported as “Neither compound had any significant effect” and the “β-arrestin recruitment, PAM detection mode” value is “Neither compound had any significant effect”. For the same molecule, in assay [2], the EC50 is 1 µM and 1.7 µM; the Emax came out at 72%. The molecule also had an EC50 in assay [7] of 2.2 µM.
In assay [6] (EC50 of agonist activity (agonist detection mode), CHO-mu, no orthosteric agonist), `COc1ccc(C2SCCN2S(=O)(=O)c2ccc(Cl)cc2)cc1Br` (stereo not drawn) [BMS-986122] had an EC50 of 41 µM. For the same molecule, in [6] (read-out: Emax of agonist activity (agonist detection mode)), the Emax was 60%. In assay [3] (setting [12]), the “effect of modulator on maximal stimulation by DAMGO” value is “not affected”; the “increase in morphine potency” value is listed as 3 fold; the “leftward shift in DAMGO CRC (potency)” value was 8 fold and 7 fold. The “agonist activity of modulator in [35S]GTPγS binding” value in assay [3] (C6mu membranes) is “No significant agonist activity was detected”. The “increase in the affinity of DAMGO” value in assay [8] is 6 fold. In addition, in assay [1], the “Description (PAM efficacy class / SAM)” value is recorded as “Full PAM (ref)” and the “β-arrestin recruitment … (compound alone)” value was “Neither BMS-986121 nor BMS-986122 produced significant β-arrestin recruitment on their own”. For the same molecule, the midpoint of the response in [9], the EC50, lay at 8.9 µM. In addition, the “agonist activity of modulator” value in assay [10] is reported as “No agonist activity was observed”. Further, the “leftward shift in DAMGO potency” value in [10] (10 uM modulator) is 4.5 fold. In addition, the “effect on basal [35S]GTPγS binding” value in assay [10] (10 uM modulator, basal 4.8±0.4 fmol bound/mg protein) is on record as “not affected”. Moreover, in assay [4], the “β-arrestin recruitment, agonist detection mode” value is given as “Neither compound had any significant effect” and the “β-arrestin recruitment, PAM detection mode” value was “Neither compound had any significant effect”. For the same molecule, the EC50 in assay [5] is 3 µM and 4.9 µM. The molecule further registered an Emax in assay [2] of 79%. In addition, in assay [11], the “effect on [3H]diprenorphine binding affinity” value is listed as “no significant effect; also recorded: did not affect; also recorded: had no effect”.
Turning to `C[C@@H](NC(=O)[C@@H](N)Cc1ccc(O)cc1)C(=O)NCC(=O)N(C)[C@@H](Cc1ccccc1)C(=O)NCCO` [DAMGO, reference compound], the “stimulation of [35S]GTPγS binding above basal activity” value in assay [3] (C6mu membranes, 10 uM DAMGO, 5 min) is listed as 250%. Further, the Emax in [3] (read-out: maximal stimulation by DAMGO, control) amounted to 232%.
In the case of endomorphin-I [reference compound], in assay [6] (CHO-mu, 1 uM forskolin), the “reduction in forskolin-stimulated cAMP accumulation” value is 17 fold. Further, in [6] (cAMP inhibition vs β-arrestin recruitment), the “potency in cAMP assay (CHO) relative to arrestin recruitment (U2OS PathHunter)” value is on record as approximately 1000 fold.
